This note sets out measurements from patent publication US9815788B2, “Anti-angiogenic compounds” (University College Dublin National University of Ireland, …, priority 2012, dated 2017).

One experiment has as its system retinal blood vessels. The experiment can be described thus: Ocular neovascularisation in mouse oxygen-induced retinopathy model. It is filed as in vivo, C57BL/6J mice. As to conditions: 5 μM injected intravitreally on P13, culled P17; compared to P17 control. The protocol:
Postnatal day (P) 7 C57BL/6J mice together with their dams were treated in 75% oxygen (hyperoxia) for 5 days causing regression of retinal blood vessels. They were returned to normoxia (relative hypoxia) on P12, causing rapid regrowth of the retinal blood vessels, 5 μM 11B_CC11_HCl, 5 μM 11B_CC16_HCl, 5 μM pazopanib or 2.5 mg/ml avastin was injected intravitreally on P13. The mice were culled on P17, eyes fixed in 4% paraformaldehyde at 4° C. overnight, flat mounted and retinas stained for isolectin (red, stains vasculature).

A further experiment concerns the target T1, CysLT1 receptor (Homo sapiens, UniProt Q9Y271).
T1 construct: host or cells: CHO cells
T1 sequence (Q9Y271 1-337): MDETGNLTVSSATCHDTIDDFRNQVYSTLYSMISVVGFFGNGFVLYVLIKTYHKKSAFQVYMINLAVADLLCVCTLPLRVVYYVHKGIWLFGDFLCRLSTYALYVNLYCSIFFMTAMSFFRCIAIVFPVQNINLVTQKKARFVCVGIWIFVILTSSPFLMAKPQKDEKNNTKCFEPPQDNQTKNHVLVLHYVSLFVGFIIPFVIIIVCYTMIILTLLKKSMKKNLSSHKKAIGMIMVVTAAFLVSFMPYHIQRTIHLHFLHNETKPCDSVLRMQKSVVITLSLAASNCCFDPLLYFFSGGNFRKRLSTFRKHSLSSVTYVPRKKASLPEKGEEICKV
Kind of experiment: CysLT1 calcium mobilisation assay in CHO cells. Type of experiment: cell-based. As to conditions: 0.1 nM LTD4, CHO cells expressing CysLT1, read-out: inhibition of calcium mobilisation (CysLT1 antagonism). Here is the method:
FIG. 15 tables the percentage inhibition by compounds 11B_CC11_HCl and 11B_CC16_HCl on the cysteinyl leukotriene pathway in in vitro and ex vivo assays. […] For in vitro cysteinyl leukotriene cell-based assays 11B_CC11_HCl and 11B_CC16_HCl, were tested at 30 μM concentration in duplicate, in a single experiment for their ability to inhibit the calcium mobilisation response of the CysLT1 receptor to 0.1 nM leukotriene D4 in CHO cells over-expressing the CysLT1 receptor or the calcium mobilisation response of the CysLT2 receptor to 30 nM of leukotriene C4 in HEK 293 cells over expressing the CysLT2 receptor.
Target profiling using Cerep and Eurofins/Panlabs profiling screens was undertaken using 11B_CC11_HCl and 11B_CC16_HCl in order to investigate the mechanism of action. […] Test substance (30 LM)-induced isometrically recorded contraction by 50 percent or more within 5 min, relative to control 3 nM leukotriene D4 response, indicates possible cysteinyl-leukotriene LT1 receptor agonist activity. […] To measure inhibition of cysteinyl leukotriene 1 (CysLT1 [LTD4]) and cysteinyl leukotriene 2 (CysLT2 [LTC4]) receptor activity, calcium mobilisation was measured using Fluor-3-loaded CHO cells (for cysLT1 assays) or HEK-293 cells (for CysLT2 assays) which stably express either the CysLT1 or CysLT2 receptors. […]
For orientation: Calcium flux is commonly read through the fluorescence of an indicator in the cells.

Broadly, the inhibition is the drop in the measured response relative to a control, in per cent. Turning to `C/C(=C\c1ccccc1O)c1ccc2ccccc2n1.Cl` [Compound 11B_CC11_HCl, (E)-2-(2-Quinolin-2-yl-propenyl)-phenol HCl salt], the “inhibition of neovascularisation (avascular region as percentage of whole retina)” value in the experiment on retinal blood vessels is given as “inhibit neovascularisation”. The inhibition at 30 µM at CysLT1 receptor came to 137%.
